Paper PMC4992173, “Divergent synthesis and identification of the cellular targets of deoxyelephantopins” (Nature Communications, 2016)

Target: T1, endogenous PPARγ (Homo sapiens, UniProt P37231)
T1 construct: endogenous PPARγ was successfully enriched and quantified from the DMSO-treated Caco-2 cells; endogenous in cells; host or cells: Caco-2
Assay: Targeted competitive proteomics of endogenous PPARγ in Caco-2 cells
Type: cell-based
Conditions: Caco-2 cells treated in situ with 20 μM, lysate then 10 μM 24c; n=6
Procedure: On the basis of the reported interaction between deoxyelephantopin and PPARγ and because MCF7 cells are known to express very low levels of this protein, we investigated in a separate experiment whether deoxyelephantopin indeed covalently binds PPARγ. The recombinant transcription factor was spiked into MCF7 lysates to 30 nM final concentration and successfully enriched by the methacrylate ester probe 24c, as evidenced from LC–MS/MS-based label-free quantification (LFQ)[48]. […] Gratifyingly, endogenous PPARγ was successfully enriched and quantified from the DMSO-treated Caco-2 cells, whereas DEP pretreatment efficiently competed PPARγ enrichment (>95%; Fig. 7a). […]
Figure 7 Identification of PPARγ as target of deoxyelephantopin and screening of DEP derivatives as PPARγ antagonists. (a) Quantification of endogenous PPARγ enriched from Caco-2 cells using 10 μM 24c following in situ treatment with DEP (20 μM) or DMSO (normalized LFQ values±s.d. are shown; n=6). […] Quantification of fluorescence intensity in the competitive screening for PPARγ antagonists (bottom; values±s.d. are shown; n=3).
Samples were analyzed by LC-MS/MS (see below) and the MS data was processed with […]
Samples were analyzed by LC-MS/MS (see below) using inclusion lists containing m/z and charge of the expected peptides of indicated proteins (see Figure 6c γ . was processed with MaxQuant (see below). […]

T1 sequence (P37231 29-505 limits assumed): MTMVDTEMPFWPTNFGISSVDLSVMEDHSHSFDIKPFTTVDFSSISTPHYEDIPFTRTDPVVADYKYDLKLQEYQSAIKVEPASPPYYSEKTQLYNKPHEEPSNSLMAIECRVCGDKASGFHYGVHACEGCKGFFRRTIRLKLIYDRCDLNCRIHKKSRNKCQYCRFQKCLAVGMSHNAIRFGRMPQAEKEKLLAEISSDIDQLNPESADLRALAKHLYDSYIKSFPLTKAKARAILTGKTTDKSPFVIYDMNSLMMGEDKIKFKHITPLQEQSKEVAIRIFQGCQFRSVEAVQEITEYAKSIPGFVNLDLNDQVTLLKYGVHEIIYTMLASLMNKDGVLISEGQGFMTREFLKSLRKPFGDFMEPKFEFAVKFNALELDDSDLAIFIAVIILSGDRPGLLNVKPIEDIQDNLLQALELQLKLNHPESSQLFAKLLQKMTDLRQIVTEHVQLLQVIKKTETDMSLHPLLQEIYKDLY

SMILES: C=C(C)C(=O)O[C@H]1CC2=C[C@@H](C/C(C)=C/[C@H]3OC(=O)C(=C)[C@H]13)OC2=O [deoxyelephantopin]
- competition of endogenous PPARγ enrichment by 24c: > 95%
